pEC50, pIC50: −log10 of the molar value.
Assays:
[1] = system: left ventricular contractility (left ventricular dp/dt max); assay: Cardiac stimulant activity in vivo, left ventricular dp/dt max in anaesthetised cats; settings: Felis catus, iv, read-out: ED50 (dose to increase left ventricular dp/dt max by 50%), i.v., pretreated with pempidine and propranolol
PDE (Peak III) = assay: Inhibition of phosphodiesterase PDE (Peak III) from cat heart; settings: 1 μM cyclic AMP
Experimental: The enzyme was assayed by incubation at 37° for 4-30 min in 50 mM Tris, 5 mM MgCl2, pH 7.5 with [3-H]cyclic nucleotide (4×10^5 disintegrations min^-1) and [14-C] nucleotide 5' monophosphate (3×10^3 disintegrations min^-1). […] The reaction mixture was diluted with 0.5 ml 100 mM HEPES (N-2-Hydroxyethylpiperazine-N'-2-ethanesulfonic acid), 100 mM NaCl, pH 8.5, and applied to the column. […] The recovery of product as judged by [14-C] recovery was approximately 80%. All assays were linear with time of incubation and concentration of enzyme over the range used in these experiments.

ventricular strips = assay: Cardiac stimulant activity in vitro, force of contraction of guinea pig ventricular strips; format: cell-based, Guinea pigs; settings: Cavia porcellus, read-out: EC50 (50% increase in the force of contraction of the ventricular strips); concentration in bathing fluid
Experimental: The compounds of formula (I) and their pharmaceutically acceptable salts are tested for cardiac stimulant activity following a procedure based on that of S. C. Verma and J. H. McNeill (J. Pharm. & Exp. Therapeutics, 200, 352-362 (1977)). Guinea pigs (500-700 g) of either sex are sacrificed and the hearts are quickly removed and transferred to a dissecting dish containing oxygenated bathing fluid. While in the bathing medium, the right ventricle is cut into two strips. The strips are each suspended in a 50 ml bath containing Krebs Henseleit solution at 37° C., and the bath is bubbled with 95% oxygen and 5% carbon dioxide. The ventricular strips are electrically stimulated at a frequency of 1.0 Hz, at double the threshold voltage. A resting tension of 1.0 g is applied to the strips and the tension is kept constant by readjustment during an equilibration period of 60 minutes. The bathing fluid is frequently changed during this period. When a steady base line is obtained, a compound under test is added to the bathing fluid and a cumulative concentration response curve is plotted.

[2] = system: hindquarters perfusion pressure; assay: Vasodilator activity in autoperfused anaesthetised cat hind quarters; format: in vivo; settings: Felis catus, iv, constant blood flow, i.v., read-out: ED15 (i.v. dose to decrease hindquarters perfusion pressure by 15%)
Experimental: The compounds of the Examples were tested in autoperfused anaesthetised cat hind quarters (autoperfused at constant blood flow). The i.v. dose to decrease hindquarters perfusion pressure (vasodilatation) by 15% is given as the ED15.

[3] = system: histamine-induced bronchoconstriction; assay: Bronchodilatation in vivo, histamine-induced bronchoconstriction in anaesthetised guinea-pigs; set-up: species or system Dunkin Hartley strain; settings: n=1
Experimental: Male guinea-pigs of the Dunkin Hartley strain (500-600 g) were anaesthetised with Sagatal (pentobarbital sodium) (60 mg/kg i.p.). Airway resistance was measured using a modification of the classical Konzett-Rossler technique (Versuchsanordnung zu Untersuchungen an der Bronchialmuskulatur. Naunyn-Schmiedebergs Arch. Exp. Path. Pharmak., 195: pp 71-74, (1940)). A dose of histamine which gave approximately 150% increase in airway resistance was selected for i.v. administration. Bolus doses of the compound of Example 6 were administered (i.v.) on minute before the histamine challenge (n=1).

Structure (SMILES) | ED50 [1] [µmol/kg] | pIC50 (PDE (Peak III)) | pEC50 (ventricular strips) | ED15 [2] [µmol/kg] | ED50 ([3]; Cavia porcellus, iv, read-out: ED50 (dose which would reduce the histamine bronchoconstriction by 50%), i.v. one minute before histamine challenge, calculated by interpolation) [µmol/kg] | effect on histamine-induced bronchoconstriction ([3]; i.v., in words)
O=c1ccc(-c2ccc(-c3ccc(=O)[nH]n3)cc2)n[nH]1 [Example 1, 1,4-Bis(6-oxo-1,6-dihydropyridazin-3-yl)benzene] | 0.04 | 6.48 | 6.05 |  |  | 
O=C1CCC(c2ccc(C3=NNC(=O)CC3)cc2)=NN1 [Example 2, 1,4-Bis(6-oxo-1,4,5,6-tetrahydropyridazin-3-yl)benzene] | 0.55 | 6.19 |  | 0.12 |  | 
CC1CC(=O)NN=C1c1ccc(C2=NNC(=O)CC2C)cc1 (stereo not drawn) [Example 3, 1,4-Bis(4-methyl-6-oxo-1,4,5,6-tetrahydropyridazin-3-yl)benzene] | 0.06 | 6.96 |  | 0.04 |  | 
Cc1cc(=O)[nH]nc1-c1ccc(-c2n[nH]c(=O)cc2C)cc1 [Example 4, 1,4-Bis(4-methyl-6-oxo-1,6-dihydropyridazin-3-yl)benzene] |  | 4.43 |  |  |  | 
O=c1ccc(-c2cccc(-c3ccc(=O)[nH]n3)c2)n[nH]1 [Example 5, 1,3-Bis(6-oxo-1,6-dihydropyridazin-3-yl)benzene] | 3.16 | 5.41 |  | 3.23 |  | 
CC1CC(=O)NN=C1c1ccc(-c2ccc(=O)[nH]n2)cc1 (stereo not drawn) [Example 6, 6-[4-(4-Methyl-6-oxo-1,4,5,6-tetrahydropyridazin-3-yl)phenyl]pyridazin-3(2H)-one] | 0.02 | 7.15 |  | 0.01 | 0.033 | reduced the histamine-induced bronchoconstriction
